Source: patent publication US9404142B2, “Screening methods for identifying Plasmodium proteases inhibitors” (Institut Pasteur, priority 2010, dated 2016)
Like-named read-outs stand apart in the source and are kept apart here.

Columns and labels:
recombinant PvSUB1 = recombinant PvSUB1 (Plasmodium vivax, UniProt E6Y8B9); experiment: FRET-based PvSUB1 enzymatic assay, Ki determination; format: biochemical; settings: Dabsyl Edans substrate; mean of at least three independent experiments ± SEM
Procedure: FIG. 2B depicts the FRET-based specific enzymatic assay which was used. In this particular case the assay consists in measuring fluorescence of tagged peptidic substrate of SUB1. An uncleaved peptide has low intensity emission whereas, when the peptide is cleaved by SUB1, high intensity emissions are measured. […] Molecules where thus tested and their Ki (inhibition constant) was determined on the PvSUB1 recombinant enzyme. FIG. 2C provides determination of the Ki of the AG6, AG1 and BH5 compounds for the recombinant PvSUB1 enzyme with the Dabsyl Edans substrate. Ten different concentrations, ranging from 300 μM to 585 nM following sequential 1:2 dilutions, of the compounds were tested using the PvSUB1 enzymatic assay. The final mixture was distributed in duplicate into a 384-well black microtiter plate (Thermo Scientific) and the fluorescence was monitored. The slope of the linear part of the kinetic was determined in an Excel™ (Microsoft) spreadsheet. The Ki and EC50 values expressed in μM were determined using GraphPad Prism™ software. […]
For the kinetic assays we used the recombinant PvSUB1/PfSUB1 enzymes and specific peptide substrates whose sequence are deduced from the auto-maturation site of each one: KLVGADDVSLA (SEQ ID NO: 9), which cleavage occurs between the two aspartates for PvSUB1 and KLVSADNIDIS (SEQ ID NO: 11) which is cleaved between the aspartate and the asparagine for PfSUB1. […] The final mixture was distributed in duplicate into a 384-well black microtiter plate (Thermo Scientific) and the fluorescence was monitored every 3 minutes for 90 min at 37° C. in a Labsystems Fluoroskan Ascent™ spectrofluorometer or a Tecan Infinite M1000™ spectrofluorometer using the excitation and emission wavelengths of […] or 620/680 nm for the Dabsyl/Edans or DYQ660/DY630 substrates respectively. The slope of the linear part of the kinetic was determined in an Excel™ (Microsoft) spreadsheet. Every steps of the enzymatic assay were done on ice to make sure that the protein was not active before the measure of the fluorescence. […]

[1] = test system: P. falciparum (3D7 clone) segmented schizonts; experiment: Merozoite egress/invasion, flow cytometry (YOYO-1) on segmented schizonts; format: cell-based, Plasmodium falciparum; settings: 90 μM, 12 hr, serum-containing medium
Procedure: Next, the selected SUB1 inhibitors were evaluated biologically for their impact on P. falciparum 3D7 stage-specific ex vivo culture. […] In vitro synchronized culture of P. falciparum composed of 0.5% of segmented schizonts (To) was cultivated for 12 hr in serum-free medium in the absence (T12) or presence of DMSO (0.9% v/v) (lane DMSO). Lanes A/G1, A/G6, B/H5 correspond to parasites incubated with 90 μM of corresponding compounds. Lanes E64 and RBC correspond to parasites cultured in presence of E64 (10 μM) and uninfected erythrocytes respectively. Parasite extracts and culture supernatants were analyzed by western blot with mAb 24C6.1F1. […] Segmented schizonts (starting material, To) were cultivated for 12 hr in serum-containing medium and their transition to newly formed trophozoites-stages in presence of 0.9% DMSO (DMSO) was analysed by flow cytometry using YOYO1 Facs technique (Li et al, Cytometry, 71A, 297-307, 2007). […]
A synchronised culture composed of segmented schizonts of P. falciparum (3D7 clone) at 0.5% parasitemia and 1% hematocrit is performed in a 24 wells plate. […] The progress of the parasitaemia from segmented schizont to newly formed trophozoites was assessed by flow cytometry after staining samples by the DNA-binding fluorescent dye, YOYO-1™, as previously described by Li and colleagues [2007, Cytometry A 71: 297-307.] with some modifications. […]

P. falciparum 3D7 strain = experiment: In vitro drug susceptibility assay on P. falciparum culture, clone 3D7; format: cell-based; settings: Plasmodium falciparum
Procedure: FIG. 2B depicts the FRET-based specific enzymatic assay which was used. In this particular case the assay consists in measuring fluorescence of tagged peptidic substrate of SUB1. […] Molecules where thus tested and their Ki (inhibition constant) was determined on the PvSUB1 recombinant enzyme. FIG. 2C provides determination of the Ki of the AG6, AG1 and BH5 compounds for the recombinant PvSUB1 enzyme with the Dabsyl Edans substrate. […] The final mixture was distributed in duplicate into a 384-well black microtiter plate (Thermo Scientific) and the fluorescence was monitored. The slope of the linear part of the kinetic was determined in an Excel™ (Microsoft) spreadsheet. The Ki and EC50 values expressed in μM were determined using GraphPad Prism™ software.
Parasites were incubated at 37° C. in an atmosphere composed of 5% O2, 5% CO2 and 90% N2. […] IC50/EC50 have been determined following nonlinear regression analysis using HN-NonLin V1.1 software (malaria.farch.net).

P. falciparum Dd2 strain = experiment: In vitro drug susceptibility assay on P. falciparum culture, clone Dd2; format: cell-based; settings: Plasmodium falciparum, DD2, read-out: IC50 on P. falciparum Dd2 strain
SERA5 maturation by SUB1 = experiment: Inhibition of maturation of SERA5 (western blot) in synchronized P. falciparum culture; format: cell-based, Plasmodium falciparum; settings: compounds 90 μM, E64 10 μM; 12 hr, serum-free medium; western blot mAb 24C6.1F1
Procedure: Next, the selected SUB1 inhibitors were evaluated biologically for their impact on P. falciparum 3D7 stage-specific ex vivo culture. […] In vitro synchronized culture of P. falciparum composed of 0.5% of segmented schizonts (To) was cultivated for 12 hr in serum-free medium in the absence (T12) or presence of DMSO (0.9% v/v) (lane DMSO). Lanes A/G1, A/G6, B/H5 correspond to parasites incubated with 90 μM of corresponding compounds. Lanes E64 and RBC correspond to parasites cultured in presence of E64 (10 μM) and uninfected erythrocytes respectively. Parasite extracts and culture supernatants were analyzed by western blot with mAb 24C6.1F1. SERA5 126 kDa precursor and its processed forms of 73, 56 and 50 kDa are indicated. […] Segmented schizonts (starting material, To) were cultivated for 12 hr in serum-containing medium and their transition to newly formed trophozoites-stages in presence of 0.9% DMSO (DMSO) was analysed by flow cytometry using YOYO1 Facs technique (Li et al, Cytometry, 71A, 297-307, 2007). Gates were selected to exclude uninfected erythrocytes and converted to two-dimensional plots illustrating the consequence of the presence of tested compounds on the arrest of schizogony. All compounds were tested at 90 μM, except E64 tested at 10 μM.

[2] = molecular target: PfSUB1 Dabsyl Edans substrate (Plasmodium falciparum)
[3] = molecular target: PvSUB1 Dabsyl Edans substrate (Plasmodium vivax)
[4] = chloroquino-sensitive clone 3D7, mean ± SEM, read-out: IC50 on P. falciparum 3D7 strain

Row | Molecule | Ki (recombinant PvSUB1) | IC50 (P. falciparum 3D7 strain; [4]) | IC50 (P. falciparum Dd2 strain) | further results
1 | O=C(C[n+]1cccc(C(=O)Nc2ccccc2)c1)c1ccc(NC(=O)c2ccccc2)cc1 [A/G1] | 5.5 ± 2.4 µM | 4.7 ± 1.8 µM | 3.5 ± 1.7 µM | Arrest of schizogony / merozoite egress [1]: able to maintain the parasites to the schizonts stage
2 | COc1cccc(C2c3c(-c4ccc(F)cc4)n[nH]c3C(=O)N2c2ccccc2)c1 (stereo not shown) [A/G6] | 8.2 ± 1.9 µM | 17.7 ± 1.7 µM | 14.8 ± 6.7 µM | Arrest of schizogony / merozoite egress [1]: able to maintain the parasites to the schizonts stage
3 | O=C(Cn1ncc2c3ccccc3n(Cc3cccc(Cl)c3)c2c1=O)N1CCc2ccccc21 [B/H5] | 1.4 ± 1 µM | 16.9 ± 3.3 µM | 13 ± 8.1 µM | –
4 | CC(C)C[C@H](NC(=O)[C@H]1O[C@@H]1C(=O)O)C(=O)NCCCCN=C(N)N [Compound E64] | – | – | – | Maturation of SERA5 by SUB1 successive cleavages (SERA5 maturation by SUB1): inactive
5 | CCN(CC)CCCC(C)Nc1ccnc2cc(Cl)ccc12 (stereo not shown) [chloroquine, reference compound] | – | – | 0.0355 ± 0.0137 µg/mL | IC50 (P. falciparum 3D7 strain; 3D7, read-out: IC50 on P. falciparum 3D7 strain): 0.0043 ± 0.0013 µg/mL
6 | recombinant Plasmodium falciparum SUB1 (PfSUB1) (enzyme) | – | – | – | apparent Km, FRET-based cleavage assay [2]: 30.2 µM
7 | recombinant enzymatically active form of Plasmodium vivax SUB1-Belem (PvSUB1-Belem) (enzyme) | – | – | – | apparent Km, FRET-based cleavage assay [3]: 19.7 µM
